Reference: PubChem BioAssay (NCI)
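96-well plates; 48 h exposure; 5 concentrations. Endpoints by linear interpolation between flanking doses. Not reached: highest tested concentration assigned. At the TGI there is no net growth.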

Tests used:
Test in all cases: growth of human tumour cells (NCI), 48 h
[1] = test system: ACHN renal
[2] = test system: DU-145 prostate
[3] = test system: M14 melanoma
[4] = test system: MCF7 breast
[5] = test system: NCI-H460 lung
[6] = test system: OVCAR-4 ovarian
[7] = test system: OVCAR-5 ovarian
[8] = test system: SK-MEL-28 melanoma
[9] = test system: SK-OV-3 ovarian
[10] = test system: UACC-257 melanoma

| Compound | TGI [1] | TGI [2] | TGI [3] | TGI [4] | TGI [5] | TGI [6] | TGI [7] | TGI [8] | TGI [9] | TGI [10] |
| --- | --- | --- | --- | --- | --- | --- | --- | --- | --- | --- |
| COc1ccc(N[C@H](CS(=O)c2ccc(C)cc2)C(F)(F)F)cc1 (some centres undefined) | > 100 µM | > 100 µM | > 100 µM | > 100 µM | > 100 µM | > 100 µM | > 100 µM | > 100 µM | > 100 µM | > 100 µM |
| O=C(O)CN1CCN2CCCCCCCCN(CC1)CCN(CC(=O)O)CC2 | > 100 µM | > 100 µM | > 100 µM | > 100 µM | > 100 µM | > 100 µM | > 100 µM | > 100 µM | > 100 µM | > 100 µM |
| Cc1cc(-c2nc3ccc(F)cc3s2)ccc1NC(=O)C(N)CCCCN (centres undefined) | 25.6 µM | 26.2 µM | 6.57 µM | 4.46 µM | 5.64 µM | 24.6 µM | 22.5 µM | 34.8 µM | 27.1 µM | 28.1 µM |
| NC1=Nc2ccccc2Sc2nccn21 | 91 µM | > 100 µM | 32.8 µM | > 100 µM | > 100 µM | > 100 µM | > 100 µM | > 100 µM | > 100 µM | 75 µM |
| CC1(C)C(CBr)=[N+]([O-])C(C)(C)N1O | > 8.86 µM | > 10 µM | 5.65 µM | > 10 µM | > 10 µM | 4.23 µM | > 10 µM | > 10 µM | > 10 µM | > 10 µM |
| Cc1cc(OP2(=O)NCc3ccncc3O2)ccc1Cl (centres undefined) | > 100 µM | > 100 µM | > 100 µM | > 100 µM | > 100 µM | > 100 µM | > 100 µM | > 100 µM | – | > 100 µM |
| Cc1ccc(F)c2[nH]c(-c3ccccc3)cc(=O)c12 | > 100 µM | > 100 µM | > 100 µM | > 20.4 µM | > 100 µM | > 100 µM | > 31.3 µM | > 40.1 µM | > 100 µM | > 100 µM |
| CCOC(=O)c1ccc(NCc2ccc3nc(OC)c(OC)nc3c2)cc1 | > 100 µM | > 100 µM | > 100 µM | > 100 µM | > 100 µM | > 100 µM | > 100 µM | > 100 µM | > 100 µM | > 100 µM |
| O=S(=O)(O)c1ccc(N=Nc2ccc(N=Nc3c(O)ccc4ccc(S(=O)(=O)O)cc34)cc2)cc1 | > 100 µM | > 100 µM | > 100 µM | > 100 µM | > 100 µM | > 100 µM | > 100 µM | > 100 µM | > 100 µM | > 100 µM |
| Cc1cn(CC2(CO)CCC2)c(=O)[nH]c1=O | > 100 µM | > 100 µM | – | > 100 µM | > 100 µM | > 100 µM | > 100 µM | > 100 µM | > 100 µM | > 100 µM |
| CCCC(=O)Nc1cc(/C=C/C(=O)N2CC(CCl)c3ccc([N+](=O)[O-])cc32)n(C)c1 (centres undefined) | > 100 µM | > 100 µM | > 100 µM | > 100 µM | – | > 100 µM | > 100 µM | > 100 µM | > 100 µM | > 100 µM |
| COC(=O)c1ccc(Oc2nc3ccc(C(F)(F)F)cc3nc2-c2ccccc2)cc1 | > 100 µM | > 100 µM | – | > 100 µM | > 100 µM | > 100 µM | > 100 µM | > 100 µM | > 100 µM | > 100 µM |
| COc1cc(/C=C2\N=C(c3ccccc3)N(c3nc4ccccc4s3)C2=O)cc(OC)c1OC | 84.5 µM | > 100 µM | > 100 µM | > 100 µM | > 100 µM | 68 µM | > 100 µM | > 100 µM | – | > 100 µM |
| COC(Cc1cc(C(O)(c2ccc(C(C)(C)C)cc2)c2cc(CC(OC)(c3cc(C(OC)(c4ccc(C(C)(C)C)cc4)c4ccc(C(C)(C)C)cc4)c(C)cc3C)c3cc(C(OC)(c4ccc(C(C)(C)C)cc4)c4ccc(C(C)(C)C)cc4)c(C)cc3C)c(C)cc2C)c(C)cc1C)(c1cc(C(OC)(c2ccc(C(C)(C)C)cc2)c2ccc(C(C)(C)C)cc2)c(C)cc1C)c1cc(C(OC)(c2ccc(C(C)(C)C)cc2)c2ccc(C(C)(C)C)cc2)c(C)cc1C | – | > 75 µM | > 75 µM | > 75 µM | > 75 µM | > 75 µM | > 75 µM | > 75 µM | > 75 µM | > 75 µM |
| CCN(CC)CCOCCOCC1(c2ccc(Cl)c(Cl)c2)CCCCC1 | 28.5 µM | 22.1 µM | 3.29 µM | 20.3 µM | 13.3 µM | 26.2 µM | 24 µM | 12.3 µM | 24.5 µM | 9.57 µM |
